In PubChem BioAssay AID2060603 (Molecular Pharmacology Branch, DTP, NCI, 2025):

System: 422866-222-R5-J1-PDC spheroid viability
Experiment: Anticancer human tumor 422866-222-R5-J1-PDC patient-derived pancreatic adenocarcinoma cell line growth inhibition [CLK]
Details: spheroids with HUVEC and MSC; for IC50: curve of first compound; for viability, T/C: stronger effect = lower value; active = viability on the fitted dose curve at most 10% of control; inactive = the rest
Outline: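 Multi-cell-type spheroids combined patient-derived tumor cells with HUVEC endothelial cells and human mesenchymal stem cells. Paired agents were dosed in half-log steps down from about clinical Cmax, or from 10 microM where Cmax was unknown.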
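Note: spheroids exposed to agents for seven days before readout.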

NC(=O)C(=Cn1cnc(-c2cc(C(F)(F)F)cc(C(F)(F)F)c2)n1)c1cncnc1 + CNC(=O)c1ccc(Nc2nc(OC3CCCC3)c3c(-c4ccc5nc(C)oc5c4)c[nH]c3n2)c(OC)c1
0.037 µM: IC50 (second compound 3.16 µM)
0.0552 µM: IC50 (second compound 10 µM)
0.0554 µM: IC50 (second compound 1 µM)
0.279 µM: IC50 (second compound 0.316 µM)
> 3 µM: IC50 (second compound 0.0316 µM) | IC50 (second compound 0.1 µM)
inactive: viability, T/C (second compound 0.0316 µM, first compound 0.00949 µM) 98.7% | viability, T/C (second compound 0.0316 µM, first compound 0.03 µM) 107% | viability, T/C (second compound 0.0316 µM, first compound 0.0949 µM) 95.1% | viability, T/C (second compound 0.0316 µM, first compound 0.3 µM) 47.6% | viability, T/C (second compound 0.0316 µM, first compound 0.949 µM) 75.6% | viability, T/C (second compound 0.0316 µM, first compound 3 µM) 76.5% | viability, T/C (second compound 0.1 µM, first compound 0.00949 µM) 98.5% | viability, T/C (second compound 0.1 µM, first compound 0.03 µM) 115% | viability, T/C (second compound 0.1 µM, first compound 0.0949 µM) 66.6% | viability, T/C (second compound 0.1 µM, first compound 0.3 µM) 46.2% | viability, T/C (second compound 0.1 µM, first compound 0.949 µM) 47.5% | viability, T/C (second compound 0.1 µM, first compound 3 µM) 67.5% | viability, T/C (second compound 0.316 µM, first compound 0.00949 µM) 86.1% | viability, T/C (second compound 0.316 µM, first compound 0.03 µM) 87.6% | viability, T/C (second compound 0.316 µM, first compound 0.0949 µM) 56.8% | viability, T/C (second compound 0.316 µM, first compound 0.3 µM) 31.4% | viability, T/C (second compound 0.316 µM, first compound 0.949 µM) 45.4% | viability, T/C (second compound 0.316 µM, first compound 3 µM) 71.8% | viability, T/C (second compound 1 µM, first compound 0.00949 µM) 52% | viability, T/C (second compound 1 µM, first compound 0.03 µM) 69.5% | viability, T/C (second compound 1 µM, first compound 0.0949 µM) 40.6% | viability, T/C (second compound 1 µM, first compound 0.3 µM) 21.7% | viability, T/C (second compound 1 µM, first compound 0.949 µM) 32.3% | viability, T/C (second compound 1 µM, first compound 3 µM) 54.9% | viability, T/C (second compound 3.16 µM, first compound 0.00949 µM) 45.7% | viability, T/C (second compound 3.16 µM, first compound 0.03 µM) 60.2% | viability, T/C (second compound 3.16 µM, first compound 0.0949 µM) 37.3% | viability, T/C (second compound 3.16 µM, first compound 0.3 µM) 21.3% | viability, T/C (second compound 3.16 µM, first compound 0.949 µM) 29.5% | viability, T/C (second compound 3.16 µM, first compound 3 µM) 48.2% | viability, T/C (second compound 10 µM, first compound 0.00949 µM) 55.1% | viability, T/C (second compound 10 µM, first compound 0.03 µM) 65.4% | viability, T/C (second compound 10 µM, first compound 0.0949 µM) 40.9% | viability, T/C (second compound 10 µM, first compound 0.3 µM) 27.9% | viability, T/C (second compound 10 µM, first compound 0.949 µM) 37.2% | viability, T/C (second compound 10 µM, first compound 3 µM) 49.3%

Nc1ccccc1NC(=O)c1ccc(CNC(=O)OCc2cccnc2)cc1 + CNC(=O)c1ccc(Nc2nc(OC3CCCC3)c3c(-c4ccc5nc(C)oc5c4)c[nH]c3n2)c(OC)c1
inactive: viability, T/C (second compound 0.0316 µM, first compound 0.0316 µM) 115% | viability, T/C (second compound 0.0316 µM, first compound 0.1 µM) 121% | viability, T/C (second compound 0.0316 µM, first compound 0.316 µM) 157% | viability, T/C (second compound 0.0316 µM, first compound 1 µM) 90% | viability, T/C (second compound 0.0316 µM, first compound 3.16 µM) 68.7% | viability, T/C (second compound 0.0316 µM, first compound 10 µM) 74.7% | viability, T/C (second compound 0.1 µM, first compound 0.0316 µM) 106% | viability, T/C (second compound 0.1 µM, first compound 0.1 µM) 116% | viability, T/C (second compound 0.1 µM, first compound 0.316 µM) 114% | viability, T/C (second compound 0.1 µM, first compound 1 µM) 99.8% | viability, T/C (second compound 0.1 µM, first compound 3.16 µM) 77.9% | viability, T/C (second compound 0.1 µM, first compound 10 µM) 79.2% | viability, T/C (second compound 0.316 µM, first compound 0.0316 µM) 82.5% | viability, T/C (second compound 0.316 µM, first compound 0.1 µM) 76.5% | viability, T/C (second compound 0.316 µM, first compound 0.316 µM) 77% | viability, T/C (second compound 0.316 µM, first compound 1 µM) 80.8% | viability, T/C (second compound 0.316 µM, first compound 3.16 µM) 64.5% | viability, T/C (second compound 0.316 µM, first compound 10 µM) 50.9% | viability, T/C (second compound 1 µM, first compound 0.0316 µM) 75.1% | viability, T/C (second compound 1 µM, first compound 0.1 µM) 67.6% | viability, T/C (second compound 1 µM, first compound 0.316 µM) 69.1% | viability, T/C (second compound 1 µM, first compound 1 µM) 60.8% | viability, T/C (second compound 1 µM, first compound 3.16 µM) 58.5% | viability, T/C (second compound 1 µM, first compound 10 µM) 39.1% | viability, T/C (second compound 3.16 µM, first compound 0.0316 µM) 65.7% | viability, T/C (second compound 3.16 µM, first compound 0.1 µM) 60.2% | viability, T/C (second compound 3.16 µM, first compound 0.316 µM) 77.6% | viability, T/C (second compound 3.16 µM, first compound 1 µM) 76.2% | viability, T/C (second compound 3.16 µM, first compound 3.16 µM) 60.6% | viability, T/C (second compound 3.16 µM, first compound 10 µM) 49.6% | viability, T/C (second compound 10 µM, first compound 0.0316 µM) 67.2% | viability, T/C (second compound 10 µM, first compound 0.1 µM) 60.6% | viability, T/C (second compound 10 µM, first compound 0.316 µM) 71.9% | viability, T/C (second compound 10 µM, first compound 1 µM) 61.2% | viability, T/C (second compound 10 µM, first compound 3.16 µM) 67.3% | viability, T/C (second compound 10 µM, first compound 10 µM) 48.1%
4.64 µM: IC50 (second compound 1 µM)
> 10 µM: IC50 (second compound 0.0316 µM) | IC50 (second compound 0.1 µM) | IC50 (second compound 0.316 µM) | IC50 (second compound 3.16 µM) | IC50 (second compound 10 µM)
